Laboratory results from patent US5086066A, “Method of providing anxiolytic and antipsychotic treatment with substituted benzamides” (priority 1988, dated 1992).

Assays:
[1] = acute toxicity, median lethal dose (LD50) intravenously; settings: mouse, in vivo, iv
Text: The compounds of the invention were also subjected to a study of acute toxicity when injected intravenously in male mice and female mice, which enabled the median lethal doses (LD50) to be determined.

rats = assay: hyperactivity induced by injection of amphetamine into the nucleus accumbens (motor activity), antipsychotic activity; type: in vivo
Experimental: Tests were conducted to measure the antipsychotic activity of the compounds of the invention. In particular, the hyperactivity induced in rats by the perfusion of amphetamine into the nucleus accumbens was evaluated. This test consists in determining the effect of the compounds of the invention on hyperactivity produced in rats by the injection of amphetamine into the nucleus accumbens. Hyperactivity was induced by injecting 20 μg of amphetamine bilaterally into the nucleus accumbens. The compounds of the invention were administered subcutaneously at doses of 1 mg/kg and 10 mg/kg, 40 minutes before the injection of amphetamine. For each dose of test product, a group of 5 animals was used. A group treated only with amphetamine and a reference group which received only an inert vehicle comprised 10 animals.
Immediately after the injection of amphetamine, the rats were placed in individual cages equipped with photoelectric cells. Motor activity, characterized by the number of shifts from place to place in these cages, was determined by the number of interruptions of a light beam striking these cells. The measurements were made during the 80 minutes following the injection of amphetamine. The results, expressed as the number of shifts from place to place per 10-minute period, are collated in Table 2.

mice = assay: two compartment (dark and light) box test, anxiolytic activity; type: in vivo; settings: for % time in black compartment / Black compartment rearings/5 min / Black compartment transits/5 min / Delay white → black / White compartment rearings/5 min / White compartment transits/5 min: 40 min after administration, S.E.M. <12.6%, n = 5; for minimal effective dose: Mus musculus, sc, 40 min, subcutaneous, mice, read-out: dose at and above which anxiolytic activity is manifested
Experimental: The two compartment box test was conducted in mice to evaluate anxiolytic activity. This test is based on a natural aversion of mice to light. The apparatus used is a box containing two compartments, one of which is dark (labeled "black compartment" in the Table 1) and the other illuminated (labeled "white compartment" in Table 1). The apparatus is designed to allow the animal to choose between staying in either of the two compartments. Under normal conditions, the mice avoid light and usually remain in the dark compartment. Under the influence of an anxiolytic agent, however, exploration of the illustrated compartment predominates. The test consists of placing each mouse in the center of the illuminated compartment and observing the animal's behavior by video system for 5 minutes. The number of exploratory rearings and the number of displacements (the crossing of lines traced on the floor of each compartment constitute "passages") are then recorded for each compartment. An anxiolytic effect induced by a drug, such as diazepam, is characterized by an increase in the number of exploratory rearings and in the number of passages into the illuminated compartment. The compounds of the invention were injected subcutaneously at variable doses, each dose being administered to a group of 5 mice.

CCN(CC)CCNC(=O)c1cc(Cl)c(NC2=NC(C)CN2)cc1OC (stereo not drawn) [Compound 1, N-[2-(diethylamino)ethyl]-2-methoxy-4-[(4,5-dihydro-4-methyl-1H-imidazol-2-yl)amino]-5-chlorobenzamide]
LD50 ([1]; female mice): 24 mg/kg | LD50 ([1]; male mice): 19.5 mg/kg | Motor activity (rats; 1 mg/kg s.c. 40 min before amphetamine 20 μg, time 10 min): 49 ± 9 shifts from place to place/10 minutes | Motor activity (rats; 1 mg/kg s.c. 40 min before amphetamine 20 μg, time 20 min): 35 ± 3 shifts from place to place/10 minutes | Motor activity (rats; 1 mg/kg s.c. 40 min before amphetamine 20 μg, time 30 min): 45 ± 8 shifts from place to place/10 minutes | Motor activity (rats; 1 mg/kg s.c. 40 min before amphetamine 20 μg, time 40 min): 40 ± 8 shifts from place to place/10 minutes | Motor activity (rats; 1 mg/kg s.c. 40 min before amphetamine 20 μg, time 50 min): 11 ± 3 shifts from place to place/10 minutes | Motor activity (rats; 1 mg/kg s.c. 40 min before amphetamine 20 μg, time 60 min): 12 ± 2 shifts from place to place/10 minutes | Motor activity (rats; 1 mg/kg s.c. 40 min before amphetamine 20 μg, time 70 min): 8 ± 1 shifts from place to place/10 minutes | Motor activity (rats; 10 mg/kg s.c. 40 min before amphetamine 20 μg, time 10 min): 27 ± 4 shifts from place to place/10 minutes | Motor activity (rats; 10 mg/kg s.c. 40 min before amphetamine 20 μg, time 20 min): 27 ± 6 shifts from place to place/10 minutes | Motor activity (rats; 10 mg/kg s.c. 40 min before amphetamine 20 μg, time 30 min): 13 ± 3 shifts from place to place/10 minutes | Motor activity (rats; 10 mg/kg s.c. 40 min before amphetamine 20 μg, time 40 min): 11 ± 2 shifts from place to place/10 minutes | Motor activity (rats; 10 mg/kg s.c. 40 min before amphetamine 20 μg, time 50 min): 8 ± 2 shifts from place to place/10 minutes | % time in black compartment (mice; 0.01 mg/kg s.c.): 36% | Black compartment rearings/5 min (mice; 0.01 mg/kg s.c.): 16 rearings/5 min | Black compartment transits/5 min (mice; 0.01 mg/kg s.c.): 37 transits/5 min | Delay white → black (mice; 0.01 mg/kg s.c.): 19 s | White compartment rearings/5 min (mice; 0.01 mg/kg s.c.): 57 rearings/5 min | White compartment transits/5 min (mice; 0.01 mg/kg s.c.): 77 transits/5 min | % time in black compartment (mice; 0.1 mg/kg s.c.): 27% | Black compartment rearings/5 min (mice; 0.1 mg/kg s.c.): 14 rearings/5 min | Black compartment transits/5 min (mice; 0.1 mg/kg s.c.): 23 transits/5 min | Delay white → black (mice; 0.1 mg/kg s.c.): 22 s | White compartment rearings/5 min (mice; 0.1 mg/kg s.c.): 73 rearings/5 min | White compartment transits/5 min (mice; 0.1 mg/kg s.c.): 79 transits/5 min | minimal effective dose (mice): ≥ 0.01 mg/kg

CCN(CC)CCNC(=O)c1cc(Br)c(NC2=NC(C)CN2)cc1OC (stereo not drawn) [Compound 3, N-[2-(diethylamino)ethyl]-2-methoxy-4-[(4,5-dihydro-4-methyl-1H-imidazol-2-yl)amino]-5-bromo-benzamide]
LD50 ([1]; female mice): 24 mg/kg | LD50 ([1]; male mice): 22 mg/kg | % time in black compartment (mice; 0.1 mg/kg s.c.): 30% | Black compartment rearings/5 min (mice; 0.1 mg/kg s.c.): 18 rearings/5 min | Black compartment transits/5 min (mice; 0.1 mg/kg s.c.): 18 transits/5 min | Delay white → black (mice; 0.1 mg/kg s.c.): 23 s | White compartment rearings/5 min (mice; 0.1 mg/kg s.c.): 97 rearings/5 min | White compartment transits/5 min (mice; 0.1 mg/kg s.c.): 104 transits/5 min

C=CCN1CCCC1CNC(=O)c1cc(Cl)c(NC2=NC(C)CN2)cc1OC (stereo not drawn) [Compound 2, N-(1-allyl-2-pyrrolidinylmethyl)-2-methoxy-4-[(4,5-dihydro-4-methyl-1H-imidazol-2-yl)amino]-5-chlorobenzamide]
LD50 ([1]; female mice): 42 mg/kg | LD50 ([1]; male mice): 42 mg/kg | % time in black compartment (mice; 0.01 mg/kg s.c.): 49% | Black compartment rearings/5 min (mice; 0.01 mg/kg s.c.): 27 rearings/5 min | Black compartment transits/5 min (mice; 0.01 mg/kg s.c.): 30 transits/5 min | Delay white → black (mice; 0.01 mg/kg s.c.): 18 s | White compartment rearings/5 min (mice; 0.01 mg/kg s.c.): 43 rearings/5 min | White compartment transits/5 min (mice; 0.01 mg/kg s.c.): 51 transits/5 min | % time in black compartment (mice; 0.1 mg/kg s.c.): 29% | Black compartment rearings/5 min (mice; 0.1 mg/kg s.c.): 20 rearings/5 min | Black compartment transits/5 min (mice; 0.1 mg/kg s.c.): 25 transits/5 min | Delay white → black (mice; 0.1 mg/kg s.c.): 20 s | White compartment rearings/5 min (mice; 0.1 mg/kg s.c.): 83 rearings/5 min | White compartment transits/5 min (mice; 0.1 mg/kg s.c.): 80 transits/5 min | minimal effective dose (mice): ≥ 0.01 mg/kg

CCN1CCCC1CNC(=O)c1cc(Cl)c(NC2=NC(C)CN2)cc1OC (stereo not drawn) [Compound 5, N-(1-ethyl-2-pyrrolidinylmethyl)-2-methoxy-4-[(4,5-dihydro-4-methyl-1H-imidazol-2-yl)amino]-5-chlorobenzamide]
% time in black compartment (mice; 1 mg/kg s.c.): 32% | Black compartment rearings/5 min (mice; 1 mg/kg s.c.): 14 rearings/5 min | Black compartment transits/5 min (mice; 1 mg/kg s.c.): 19 transits/5 min | Delay white → black (mice; 1 mg/kg s.c.): 23 s | White compartment rearings/5 min (mice; 1 mg/kg s.c.): 65 rearings/5 min | White compartment transits/5 min (mice; 1 mg/kg s.c.): 89 transits/5 min | % time in black compartment (mice; 10 mg/kg s.c.): 32% | Black compartment rearings/5 min (mice; 10 mg/kg s.c.): 15 rearings/5 min | Black compartment transits/5 min (mice; 10 mg/kg s.c.): 16 transits/5 min | Delay white → black (mice; 10 mg/kg s.c.): 22 s | White compartment rearings/5 min (mice; 10 mg/kg s.c.): 68 rearings/5 min | White compartment transits/5 min (mice; 10 mg/kg s.c.): 80 transits/5 min

CCN(CC)CCNC(=O)c1cc(Br)c(NC2=NCCN2)cc1OC [Compound 6, N-[2-(diethylamino)ethyl]-2-methoxy-4-[(4,5-dihydro-1H-imidazol-2-yl)amino]-5-bromobenzamide]
LD50 ([1]; female mice): 118 mg/kg | LD50 ([1]; male mice): 103 mg/kg | % time in black compartment (mice; 0.1 mg/kg s.c.): 27% | Black compartment rearings/5 min (mice; 0.1 mg/kg s.c.): 39 rearings/5 min | Black compartment transits/5 min (mice; 0.1 mg/kg s.c.): 50 transits/5 min | Delay white → black (mice; 0.1 mg/kg s.c.): 13 s | White compartment rearings/5 min (mice; 0.1 mg/kg s.c.): 40 rearings/5 min | White compartment transits/5 min (mice; 0.1 mg/kg s.c.): 48 transits/5 min

CC(N)Cc1ccccc1 (stereo not drawn) [Amphetamine, amphetamine, reference compound]
Motor activity (rats; amphetamine alone 20 μg bilaterally into nucleus accumbens, time 10 min): 31 ± 4 shifts from place to place/10 | Motor activity (rats; amphetamine alone 20 μg bilaterally into nucleus accumbens, time 20 min): 48 ± 5 shifts from place to place/10 | Motor activity (rats; amphetamine alone 20 μg bilaterally into nucleus accumbens, time 30 min): 66 ± 7 shifts from place to place/10 | Motor activity (rats; amphetamine alone 20 μg bilaterally into nucleus accumbens, time 40 min): 59 ± 7 shifts from place to place/10 | Motor activity (rats; amphetamine alone 20 μg bilaterally into nucleus accumbens, time 50 min): 36 ± 5 shifts from place to place/10 | Motor activity (rats; amphetamine alone 20 μg bilaterally into nucleus accumbens, time 60 min): 29 ± 4 shifts from place to place/10 | Motor activity (rats; amphetamine alone 20 μg bilaterally into nucleus accumbens, time 70 min): 19 ± 3 shifts from place to place/10 | Motor activity (rats; amphetamine alone 20 μg bilaterally into nucleus accumbens, time 80 min): 8 ± 3 shifts from place to place/10

CCN(CC)CCNC(=O)c1cc(Cl)c(NC2=NCCO2)cc1OC [Compound 7, N-[2-(diethylamino)ethyl]-2-methoxy-4-[(4,5-dihydro-2-oxazolyl)amino]-5-chlorobenzamide]
% time in black compartment (mice; 0.1 mg/kg s.c.): 27% | Black compartment rearings/5 min (mice; 0.1 mg/kg s.c.): 16 rearings/5 min | Black compartment transits/5 min (mice; 0.1 mg/kg s.c.): 16 transits/5 min | Delay white → black (mice; 0.1 mg/kg s.c.): 24 s | White compartment rearings/5 min (mice; 0.1 mg/kg s.c.): 69 rearings/5 min | White compartment transits/5 min (mice; 0.1 mg/kg s.c.): 68 transits/5 min
